Measured values taken from ChEMBL document CHEMBL4725270, “Chloroquine fumardiamides as novel quorum sensing inhibitors” (2020).
Active and inactive are the calls of the source. The calls are words filed in the database; no cut-off is given here.

Key:
[1] = tested on: Chromobacterium violaceum; assay: Bactericidal activity against Chromobacterium violaceum ATCC 31532 at 400 uM by resazurin dye based assay relative to control; type: functional
[2] = tested on: Chromobacterium violaceum; assay: Inhibition of quorum sensing system in Chromobacterium violaceum ATCC 31532 assessed as reduction in violacein production at 400 uM relative to control
[3] = tested on: Chromobacterium violaceum; assay: Inhibition of quorum sensing in Chromobacterium violaceum ATCC 31532 assessed as quorum quenching by measuring violacein production at 40 uM in presence of C6-HSL
[4] = tested on: Chromobacterium violaceum; assay: Inhibition of quorum sensing in violacein-negative Chromobacterium violaceum CV026 mini-Tn5 mutant assessed as quorum quenching by measuring violacein production at 40 uM in presence of C6-HSL relative to control; set-up: scale not given: the % may be the effect or the level left
[5] = tested on: Chromobacterium violaceum; assay: Inhibition of quorum sensing in violacein-negative Chromobacterium violaceum CV026 mini-Tn5 mutant assessed as quorum quenching by measuring violacein production at 400 uM in presence of C6-HSL relative to control; set-up: scale not given: the % may be the effect or the level left
[6] = tested on: Chromobacterium violaceum; assay: Inhibition of quorum sensing in Chromobacterium violaceum ATCC 31532 assessed as reduction in violacein production at 40 uM relative to control
[7] = tested on: Chromobacterium violaceum; assay: Bactericidal activity against violacein-negative Chromobacterium violaceum CV026 mini-Tn5 mutant at 400 uM by resazurin dye based assay relative to control; type: functional
[8] = tested on: Chromobacterium violaceum; assay: Bactericidal activity against Chromobacterium violaceum ATCC 31532 assessed as reduction in cell viability at 400 uM by resazurin dye based assay relative to control
[9] = tested on: Chromobacterium violaceum; assay: Inhibition of quorum sensing in Chromobacterium violaceum ATCC 31532 assessed as reduction in violacein production at 400 uM relative to control

SMILES | Activity [1] | inhibition [2] | Activity [3] | Activity [4] [%] | Activity [5] | inhibition [6] | Activity [7] | Activity [8] [%] | inhibition [9] [%]
COc1cc(NC(C)CCCNC(=O)/C=C/C(=O)Nc2ccc(C(F)(F)F)cc2)c2ncccc2c1 (stereo unspecified) | 31.2% | inactive | – | – | – | – | – | – | –
O=C(/C=C/C(=O)Nc1ccc(Cl)cc1)NCCCCNc1cc(C(F)(F)F)nc2c(C(F)(F)F)cccc12 | inactive | 29.9% | – | – | – | – | – | – | –
CC(C)(C)OC(=O)NC1CCN(C(=O)/C=C/C(=O)NCCCCNc2ccnc3cc(Cl)ccc23)CC1 | 44.6% | 9.1% | – | – | – | – | – | – | –
COc1cc(NC(C)CCCNC(=O)/C=C/C(=O)Nc2cccc(C(F)(F)F)c2)c2ncccc2c1 (stereo unspecified) | 16.4% | inactive | inactive | – | – | – | – | – | –
O=C(/C=C/C(=O)NC1CCNCC1)NCCCCNc1ccnc2cc(Cl)ccc12 | 6.5% | 45.9% | – | 42.8 | 61.6% | 5.4% | 10.3% | – | –
O=C(/C=C/C(=O)Nc1ccc(C(F)(F)F)cc1)NCCCCNc1ccnc2cc(Cl)ccc12 | 27.7% | 85.7% | inactive | – | inactive | – | inactive | – | –
O=C(/C=C/C(=O)Nc1cccc(Cl)c1)NCCCCNc1ccnc2cc(Cl)ccc12 | 45.8% | 75.3% | – | – | inactive | – | inactive | 27 | 75
CC(C)(C)OC(=O)Nc1ccc(NC(=O)/C=C/C(=O)NCCCCNc2ccnc3cc(Cl)ccc23)cc1 | 43.7% | inactive | – | – | – | – | – | – | –
O=C(/C=C/C(=O)Nc1ccc(C(F)(F)F)cc1)NCCCCNc1cc(C(F)(F)F)nc2c(C(F)(F)F)cccc12 | inactive | inactive | – | – | – | – | – | – | –
O=C(/C=C/C(=O)Nc1cccc(C(F)(F)F)c1)NCCCCNc1ccnc2cc(Cl)ccc12 | inactive | inactive | – | – | – | – | – | – | –
O=C(/C=C/C(=O)Nc1cccc(F)c1)NCCCCNc1cc(C(F)(F)F)nc2c(C(F)(F)F)cccc12 | inactive | 16.9% | – | – | – | – | – | – | –
O=C(/C=C/C(=O)Nc1ccc(F)cc1)NCCCCNc1cc(C(F)(F)F)nc2c(C(F)(F)F)cccc12 | inactive | 29.1% | – | – | – | – | – | – | –
COc1cc(NC(C)CCCN)c2ncccc2c1 (stereo unspecified) | inactive | inactive | – | – | inactive | – | inactive | – | –
O=C(/C=C/C(=O)Nc1cccc(Cl)c1)NCCCCNc1cc(C(F)(F)F)nc2c(C(F)(F)F)cccc12 | 22.3% | 22.3% | – | – | – | – | – | – | –
COc1cc(NC(C)CCCNC(=O)/C=C/C(=O)Nc2cccc(Cl)c2)c2ncccc2c1 (stereo unspecified) | 17.9% | inactive | – | – | – | – | – | – | –
NC1CCN(C(=O)/C=C/C(=O)NCCCCNc2ccnc3cc(Cl)ccc23)CC1 | 16.2% | 47.2% | – | 39.9 | 62.6% | 7% | 13.4% | – | –
COc1cc(NC(C)CCCNC(=O)/C=C/C(=O)Nc2ccc(Cl)cc2)c2ncccc2c1 (stereo unspecified) | inactive | inactive | – | – | – | – | – | – | –
CC[C@H]1OC(=O)[C@H](C)[C@@H](O[C@H]2C[C@@](C)(OC)[C@@H](O)[C@H](C)O2)[C@H](C)[C@@H](O[C@@H]2O[C@H](C)C[C@H](N(C)C)[C@H]2O)[C@](C)(O)C[C@@H](C)CN(C)[C@H](C)[C@@H](O)[C@]1(C)O [AZITHROMYCIN] | 85.6% | 90.6% | – | 86.3 | 86.3% | – | 67.2% | – | 90.6
COc1cc(NC(C)CCCNC(=O)/C=C/C(=O)Nc2cccc(F)c2)c2ncccc2c1 (stereo unspecified) | inactive | inactive | – | – | – | – | – | – | –
O=C(/C=C/C(=O)Nc1cccc(C(F)(F)F)c1)NCCCCNc1cc(C(F)(F)F)nc2c(C(F)(F)F)cccc12 | 13.8% | 22.3% | – | – | – | – | – | – | –
NCCNC(=O)/C=C/C(=O)NCCCCNc1ccnc2cc(Cl)ccc12 | 12.1% | 46.3% | – | 52.5 | 53.3% | inactive | 10.3% | – | –
CC(C)(C)OC(=O)NCCNC(=O)/C=C/C(=O)NCCCCNc1ccnc2cc(Cl)ccc12 | 10.7% | 23% | – | – | – | – | – | – | –
O=c1c(O)c(-c2ccc(O)c(O)c2)oc2cc(O)cc(O)c12 [QUERCETIN] | 14.7% | 55.8% | – | – | 66.8% | – | 17.1% | – | –
O=C(/C=C/C(=O)Nc1ccc(F)cc1)NCCCCNc1ccnc2cc(Cl)ccc12 | 39.7% | 87.9% | inactive | – | inactive | – | inactive | – | 75
Nc1ccc(NC(=O)/C=C/C(=O)NCCCCNc2ccnc3cc(Cl)ccc23)cc1 | 17.5% | 4.7% | – | – | – | – | – | – | –
CCN(CC)CCCC(C)Nc1ccnc2cc(Cl)ccc12 (stereo unspecified) [CHLOROQUINE] | 10.1% | 13.2% | – | – | – | – | – | – | –
CC(C)(C)OC(=O)N1CCC(NC(=O)/C=C/C(=O)NCCCCNc2ccnc3cc(Cl)ccc23)CC1 | 8.3% | inactive | – | – | – | – | – | – | –
O=C(/C=C/C(=O)Nc1cccc(F)c1)NCCCCNc1ccnc2cc(Cl)ccc12 | 27.8% | 79.4% | inactive | – | inactive | – | inactive | 27 | 75
O=C(/C=C/C(=O)Nc1ccc(Cl)cc1)NCCCCNc1ccnc2cc(Cl)ccc12 | 56.9% | 85% | inactive | – | inactive | – | inactive | 27 | –
COc1cc(NC(C)CCCNC(=O)/C=C/C(=O)Nc2ccc(F)cc2)c2ncccc2c1 (stereo unspecified) | 24.2% | inactive | – | – | – | – | – | – | –
